Reference: PMC7156724, “Potent BRD4 inhibitor suppresses cancer cell-macrophage interaction” (Nature Communications, 2020)
Several values for one entry are separate records, joined by “and”; a condition that tells them apart may be missing. Equal values may be shown once.

Columns and labels:
A2780 cells = experiment: Clonogenic (colony formation) assay, A2780; format: cell-based, human; settings: A2780, 250 nM, 5 days
Protocol: Fig. 2 NHWD-870 inhibited BRD4 phosphorylation and c-MYC expression, and suppressed cell growth. a Representative western blot analysis of p-BRD4 (s484/488), BRD4, c-MYC, and GAPDH after treatment of MDA-MB231, SUM159, A2780 ES-2, and H526 cells with JQ-1 or NHWD-870 at the indicated concentrations for 24 h. GAPDH served as the loading control. Selected from three independent experiments. b MTT assays of H526, A2780, ES-2, and MDA-MB231 cells treated with JQ-1 or NHWD-870 at the indicated concentrations for 5 days. Data are presented as mean ± SEM from three independent experiments. c, d Clonogenic assays of H526, A2780, ES-2 and MDA-MB231 cells treated with 250 nM JQ-1 or NHWD-870 for 5 days. Shown are representative images (c) and quantification of colonies (d). […] Shown are representative images (e) and quantification of relative colony sizes (f). Scale bar, 50 μm. Data are presented as mean ± SEM from five independent experiments. p values were calculated using two-tailed, unpaired t tests in this figure. **p < 0.01; ***p < 0.001. Source data are provided as a Source Data file. […]
5. Colony formation assay. Cells were seeded in 6-well plates at 3,000 cells/well […]
every week. […] Colony numbers were calculated with imageJ version

[1] = test system: A2780 tumor cells and TAMs; experiment: Direct co-culture of pretreated A2780 cells with TAMs, Ki67/CD68 staining; format: cell-based, mouse
Protocol: A2780 tumor cells were pretreated with 100 nM NHWD-870 and then directly co-cultured with TAMs (A2780:TAMs ratio as 4:1) at the density of 1 × 10^5 total cells in a 12-well. Shown are immunofluorescent staining of Ki67 and CD68 (a) and quantification of Ki67+ and CD68− or CD68+ cells (b). Scale bar is 50 μm. […] A2780 cells (pre-treated with or without 100 nM NHWD-870 for 48 h) were seeded into the top chamber (transwell size: 0.4 μm) and TAMs (Mac, 40,000 cells per 24-well) in medium containing 2% matrigel were seeded into the bottom chamber pre-coated with Matrigel. No NHWD-870 was added to the co-culture. The upper chamber without A2780 cells was used as a control. Shown are schematics of transwell co-culture experiment (c), representative pictures of TAM spheroid (d: black/white), and quantification of spheroid volumes (e). Scale bar is 50 μm. […] Data are presented as mean ± SEM from three independent experiments. g CSF1 protein levels in supernatant of 10^6 ID8, B16, A2780, SKOV3, and A375 cells treated with DMSO or 25 nM NHWD-870 for 24 h, as measured by ELISA. […] Scale bar is 20 μm. i Quantification of CSF1 staining in DMSO or 100 nM NHWD-870 treated A2780 cells. […] Shown are representative immunofluorescent staining of CSF1 (green) and CD68 (red) (j) and quantification of CSF1 staining (k). […]

Cc1nnn(C)c1-c1cnc2c3c4cnn(C)c4ccc3n([C@H](c3ccccc3)C3CCOCC3)c2c1 [NHWD-870]
Clone Number (clonogenic assay) (A2780 cells): 378 and 355 and 313 and 209 and 273
quantification of Ki67+ and CD68+ cells ([1]; A2780 pretreated with 100 nM, direct co-culture with TAMs): 0
inhibition at 0.1 µM ([1]; pre-treatment of A2780 cells with 100 nM, read-out: inhibition of the proliferation rate of TAMs): 83%
